Experimental data taken from patent US10202420B2, “Methods and compositions for treatment of cartilage and disc tissue pathologies” (THE ROYAL INSTITUTION FOR ADVANCEMENT OF LEARNING/MCGILL …, priority 2013, dated 2019).

Assays:
Assay type in all cases: cell-based
[1] = system: type II collagen; experiment: Type II collagen by Western blot, bovine disc organ culture; conditions: degenerated bovine discs, 2 weeks post Link N 1-8 treatment
From the text: (§1) The largest first 3-4 caudal discs were isolated from the tails of 24- to 30-month-old steers, as described previously (21,22). Briefly, the tails were dissected free of skin, muscles and ligaments, and pedicles for each segment were removed. The bone and the adjacent calcified part of the cartilaginous endplate were removed, so that the surface of the disc was soft and flexible without detectable calcified tissue. After the discs were rinsed in PBS supplemented with 1,000 U/mL penicillin, 1,000 μg/mL streptomycin and 0.25 μg/mL fungizone (GIBCO, Burlington, Canada), they were preconditioned for 3 days in sterile 80 mL specimen containers (STARPLEX Scientific, Etobicoke, Canada) containing 50 mL culture medium. (DMEM with 2 mM Glutamax and 25 mM Hepes, supplemented with 5% FBS, 100 U/mL penicillin, 100 μg/mL streptomycin, 50 μg/mL L-ascorbate). Degeneration was induced by a single injection of 100 μg trypsin (Sigma-Aldrich) dissolved in 75 μL PBS into the center of the disc using a 28 G½ needle (21) The needle was placed on top of the disc to measure the distance needed to reach the center and was then inserted to the same depth. […] The number of MSCs used was based on a study by Liebscher et al (23), which measured the cell density of healthy human discs. […]
(§2) The remaining nucleus pulposus (NP) tissue was collected and the wet weight was recorded (21). […]

[2] = system: human inner annulus fibrosus (iAF) cells; experiment: Proteoglycan synthesis by 35SO4 incorporation, cells in alginate beads; conditions: human AF (iAF) cells, 48 h
Description: (§3) Human thoracolumbar spines were retrieved through the Transplant Quebec organ donation program. Discs were obtained from 7 donors, 1 male and 6 female, with a mean age of 29.6 years and an age range of 16 to 47 years (Table 1). Donors having had recent chemotherapy, radiation therapies to the spine, or significant long-standing paralysis were excluded from the study. Spine retrieval was performed within 8 h of death. Discs with calcification and loss of disc height were not included in the study. All procedures were approved by the institutional review board of the Montreal General Hospital.
(§4) Human and bovine IVDs were separated from the adjoining vertebral body and divided into NP and AF for bovine IVDs and NP and inner annulus fibrosus (iAF) for human IVDs. Tissue from the human outer annulus fibrosus (oAF) was not used for cell isolation in this study. Cells were enzymatically isolated from each region as previously described (63). Briefly, NP and AF tissues were dissected into approximately 2-mm thick pieces, washed twice in PBS containing 50 μg/mL gentamicin, […] and 0.25 μg/mL fungizone, then digested with 0.2% pronase for 1 h, followed by collagenase type IA at 0.01% for NP and 0.04% for AF tissue for 4 h in serum free DMEM.
(§5) To compare the metabolic response to the various Link N peptides, freshly isolated human and bovine cells from NP and AF regions were embedded in 1.2% alginate beads, as previously described (65). Cells in alginate beads were cultured at 37° C., 5% CO2 in DMEM, containing 4.5 g/L glucose and supplemented with 10% FCS, 25 mmol/L HEPES, 50 μg/mL gentamicin sulphate, 0.25 μg/mL fungizone, 50 μg/mL L-ascorbate, and 2 mmol/L GlutaMAX. The beads were stabilized for 7 days and cell viability was assessed by Live/Dead® assay prior to further treatment. 5 beads per well were then cultured in 48 well plates in the presence of equimolar concentrations of either Link N (1 μg/mL), R-Link N (1 μg/mL), S-Link N (1 μg/mL), Link N 1-8 (0.5 μg/mL) or Link N 9-16 (0.5 μg/mL) in 0.5 mL DMEM. 25 μCi/mL ^35SO4 was added to the medium to allow assessment of proteoglycan synthesis (66). In addition, beads were exposed for 48 h to IL-1β (10 ng/mL) alone, or to a combination of peptides and IL-1β (51). At the end of the culture period, medium was collected and dialyzed exhaustively against miliQ water at […] (Spectra/Por® 3), followed by cold chase with 1M MgSO4 for 2 h to remove any remaining unincorporated ^35SO4. The ^35SO4 incorporation was measured using a beta scintillation counter (Beckman Coulter LS6500, Beckman Coulter, Mississauga, Canada).

[3] = system: human nucleus pulposus (NP) cells; experiment: as above; conditions: 48 h
Description: as §3, §4, §5

[4] = system: bovine annulus fibrosus (AF) cells; experiment: as above; conditions: 48 h
Description: as §4, §5

[5] = system: bovine nucleus pulposus (NP) cells; experiment: as above; conditions: 48 h
Description: as §4, §5

[6] = system: aggrecan core protein; experiment: Aggrecan core protein by Western blot, bovine disc organ culture; conditions: degenerated bovine discs, 2 weeks post Link N 1-8 treatment
From the text: as §1, §2

[7] = system: bovine discs with trypsin-induced degeneration; experiment: Proteoglycan (GAG, DMMB) concentration in bovine disc organ culture with trypsin-induced degeneration; conditions: degenerated bovine discs, 2 weeks post Link N 1-8 treatment
From the text: as §1, with “L-ascorbate).” for “L-ascorbate). Degeneration was induced by a single injection of 100 μg trypsin (Sigma-Aldrich) dissolved in 75 μL PBS into the center of the disc using a 28 G½ needle (21) The needle was placed on top of the disc to measure the distance needed to reach the center and was then inserted to the same depth.”
as §2
Sulfated glycosaminoglycans (GAGs) were quantified in tissue extracts by a modified dimethyl methylene blue (DMMB) dye-binding assay (25,26). […]

[8] = 16-mer peptides 1 μg/mL, 8-mer peptides 0.5 μg/mL, vs medium alone
[9] = IL-1β 10 ng/mL, vs IL-1-containing medium

DHLSDNYT [Link N 1-8, Link-N first 8 peptide residues]
type II collagen expression [1]: statistically significant increase
proteoglycan synthesis (35SO4 incorporation) [2, 8]: significant increase
proteoglycan synthesis (35SO4 incorporation) in the presence of IL-1β [2, 9]: significantly increased response
proteoglycan synthesis (35SO4 incorporation) [3, 8]: significant increase
proteoglycan synthesis (35SO4 incorporation) in the presence of IL-1β [3, 9]: significantly increased response
proteoglycan synthesis (35SO4 incorporation) [4, 8]: statistically significant increase
proteoglycan synthesis (35SO4 incorporation) in the presence of IL-1β [4, 9]: significantly induced proteoglycan production to the same extent as native Link N
proteoglycan synthesis (35SO4 incorporation) [5, 8]: statistically significant increase
proteoglycan synthesis (35SO4 incorporation) in the presence of IL-1β [5, 9]: significantly induced proteoglycan production to the same extent as native Link N
aggrecan expression [6]: statistically significant increase
proteoglycan synthesis (proteoglycan concentration in the discs) [7]: statistically significant increase
